Laboratory results published in paper PMC8414367, “(E)-7-Ethylidene-lithocholic Acid (7-ELCA) Is a Potent Dual Farnesoid X Receptor (FXR) Antagonist and GPBAR1 Agonist Inhibiting FXR-Induced Gene Expression in Hepatocytes and Stimulating Glucagon-like Peptide-1 Secretion From Enteroendocrine Cells” (Frontiers in Pharmacology, 2021).
Read-outs that look alike come from different tables or passages of the source.

What was measured:
[1] = biological target: T1, human FXR (Homo sapiens, UniProt Q96RI1); assay: FXR luciferase reporter gene assay (FXRE-luc) in HepG2 cells, antagonistic mode; type: cell-based; conditions: for remaining activity at 10 µM: tested compound 10 µM; for remaining activity at 40 µM: tested compound 40 µM, * = significant effect on cellular viability; for capacity to antagonize OCA-stimulated FXR activation (in words): Figure 3B
T1 sequence (Q96RI1 1-486): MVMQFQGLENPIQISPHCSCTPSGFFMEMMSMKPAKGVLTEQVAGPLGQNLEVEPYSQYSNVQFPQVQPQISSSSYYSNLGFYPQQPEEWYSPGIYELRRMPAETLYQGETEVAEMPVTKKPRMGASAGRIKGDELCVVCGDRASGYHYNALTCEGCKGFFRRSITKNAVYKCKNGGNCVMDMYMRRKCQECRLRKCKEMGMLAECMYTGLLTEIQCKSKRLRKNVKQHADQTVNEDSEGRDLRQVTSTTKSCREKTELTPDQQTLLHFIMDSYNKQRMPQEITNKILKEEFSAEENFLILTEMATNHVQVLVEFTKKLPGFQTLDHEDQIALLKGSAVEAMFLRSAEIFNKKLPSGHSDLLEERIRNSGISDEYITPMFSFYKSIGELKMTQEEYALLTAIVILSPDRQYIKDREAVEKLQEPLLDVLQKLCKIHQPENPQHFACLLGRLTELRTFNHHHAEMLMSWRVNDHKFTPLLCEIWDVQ
T1 sequence (P19793 1-462 partner): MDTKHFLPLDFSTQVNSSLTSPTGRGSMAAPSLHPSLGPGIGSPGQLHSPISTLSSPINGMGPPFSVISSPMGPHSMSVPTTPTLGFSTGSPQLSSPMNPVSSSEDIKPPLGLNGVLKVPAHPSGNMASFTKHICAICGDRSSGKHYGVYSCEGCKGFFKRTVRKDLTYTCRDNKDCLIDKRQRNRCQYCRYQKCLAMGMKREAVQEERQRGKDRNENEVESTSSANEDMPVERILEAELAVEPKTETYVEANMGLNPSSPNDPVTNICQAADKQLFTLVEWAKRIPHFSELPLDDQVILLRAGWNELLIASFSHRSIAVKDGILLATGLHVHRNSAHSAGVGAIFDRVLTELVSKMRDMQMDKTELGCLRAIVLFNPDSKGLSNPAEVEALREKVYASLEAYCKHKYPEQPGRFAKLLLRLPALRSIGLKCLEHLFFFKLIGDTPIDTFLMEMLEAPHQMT

[2] = MTS viability assay; type: cell-based, human; conditions: human, vehicle = 100%
Protocol: (§1) The potential cytotoxicity of 7-alkylated chenodeoxycholic acid derivatives were assessed in different human (HepG2, HepaRG and Huh7) and murine (AML12) hepatocyte-derived cell lines. For this purpose, hepatic cells were treated at increasing concentration for 24h and analyzed by MTS viability assay.
(§2) Table S2. Cell viability was determined using the Cell Titer 96 Aqueous One Solution Cell Proliferation Assay (MTS assay) after treatment with test compounds for 24 h in four different hepatic cell lines. Vehicle (0.1% DMSO) and background (10% SDS; v/v, toxic control) controls of cell viability were set to be 100% and 0%, respectively.

[3] = tested on: HepG2; assay: MTS viability assay; type: cell-based, human; conditions: Homo sapiens; HepG2, 24 h, MTS; read-out: IC50 (µM), cell viability
Protocol: as §1, §2

[4] = tested on: HepaRG; assay: MTS viability assay; type: cell-based, human; conditions: Homo sapiens, 24 h, MTS, read-out: IC50 (µM), cell viability
Protocol: as §1, §2

[5] = tested on: Huh7; assay: MTS viability assay; type: cell-based, human; conditions: Homo sapiens, Huh-7; Huh7, 24 h, MTS; read-out: IC50 (µM), cell viability
Protocol: as §1, §2

[6] = MTS viability assay; type: cell-based, murine; conditions: mouse, AML12 cells; AML12, 24 h, vehicle = 100%
Protocol: as §1, §2

[7] = tested on: AML12; assay: MTS viability assay; type: cell-based, murine; conditions: Mus musculus; AML12, 24 h, MTS; read-out: IC50 (µM), cell viability
Protocol: as §1, §2

[8] = biological target: T2, GPBAR1 (Homo sapiens, UniProt Q8TDU6); assay: GPBAR1 CRE-luc luciferase reporter assay in HepG2 cells; type: cell-based; conditions: 10 µM, 5 h, LCA 10 µM set as 100%
T2 construct: host or cells: HepG2
T2 sequence (Q8TDU6 1-330): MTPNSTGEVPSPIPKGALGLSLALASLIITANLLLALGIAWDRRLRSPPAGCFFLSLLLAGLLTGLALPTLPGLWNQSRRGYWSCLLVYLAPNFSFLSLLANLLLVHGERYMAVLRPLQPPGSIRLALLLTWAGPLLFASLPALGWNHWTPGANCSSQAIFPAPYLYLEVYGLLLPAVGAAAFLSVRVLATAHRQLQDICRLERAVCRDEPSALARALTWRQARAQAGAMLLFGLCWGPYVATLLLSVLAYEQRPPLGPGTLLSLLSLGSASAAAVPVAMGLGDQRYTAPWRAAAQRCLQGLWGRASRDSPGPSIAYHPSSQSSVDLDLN
Protocol: (C) Effects of LCA and 7-ELCA (both at 10 µM) on intracellular generation of cAMP in differentiated NCI-H716 cells after 30 min treatment. The increase in cAMP level (ΔcAMP) is presented as the difference between cAMP concertation in the treated sample after subtraction of the cAMP in the nontreated control sample. (D) Concentration-response curves for activation of GPBAR1 by LCA and 7-ELCA. EC50 values were calculated using nonlinear fitting of concentration-response curves. […] GLP-1 was normalized to protein concentration and GPBAR1 mRNA expression to GAPDH mRNA. Data are presented as a fold to control nontreated (NT) samples. Forskolin (FSK, 10 µM) was used as a GPBAR1-independent activator of cAMP production.

[9] = biological target: T3, FXR LBD (Homo sapiens, UniProt Q96RI1); assay: LanthaScreen TR-FRET FXR Coactivator Assay, antagonistic mode (SRC-2 peptide recruitment); type: biochemical
T3 construct: purchased ThermoFisher Scientific PV4833
T3 sequence (Q96RI1 262-486 limits assumed): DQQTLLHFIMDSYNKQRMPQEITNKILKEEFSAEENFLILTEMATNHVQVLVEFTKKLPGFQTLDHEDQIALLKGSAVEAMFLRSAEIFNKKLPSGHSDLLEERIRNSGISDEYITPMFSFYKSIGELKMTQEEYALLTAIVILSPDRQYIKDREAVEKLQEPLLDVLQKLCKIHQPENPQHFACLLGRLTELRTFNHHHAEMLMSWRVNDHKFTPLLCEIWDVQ
Protocol: The LanthaScreen® TR-FRET FXR Coactivator Assay (goat, PV4833, ThermoFisher Scientific) was performed to assess the affinity of tested compounds to FXR ligand-binding domain (LBD) in agonistic and antagonistic models. In the antagonistic assays, the FXR LBD was co-incubated with OCA or GW4064, together with tested ligands in increasing concentrations. The assay was performed according to the manufacturer’s protocols. […] Data have been obtained from three independent experiments performed in 4 replicates.

[10] = HepG2, GW4064 1 µM, read-out: relative response (%) to the model FXR ligand activation (set to be 100%), GW4064 1 µM
[11] = HepG2, CDCA 20 µM, read-out: relative response (%) to the model FXR ligand activation (set to be 100%), CDCA 20 µM

Structure (SMILES) | remaining activity at 10 µM [1, 10] [%] | remaining activity at 40 µM [1, 11] [%] | remaining activity at 40 µM [1, 10] [%] | viability at 24 h, 10 µM ([2]; HepG2 cells, HepG2, 24 h) [%] | viability at 24 h, 10 µM ([2]; HepaRG cells) [%] | viability at 24 h, 10 µM ([2]; Huh7 cells, Huh7, 24 h) [%] | IC50 [3] [µM] | IC50 [4] [µM] | IC50 [5] [µM] | viability at 24 h, 10 µM [6] [%] | IC50 [7] [µM] | capacity to antagonize OCA-stimulated FXR activation (in words) ([1]; with 1 µM OCA) | CRE-luc activation compared to LCA (in words) [8] | IC50 ([1]; HepG2, co-treatment with 1 µM OCA, 24 h, read-out: IC50, inhibition of OCA-induced FXR activation) [µM] | inhibition at 100 µM ([1]; HepG2, at 100 µM, with 1 µM OCA, read-out: inhibition of FXR activation) [%] | IC50 ([9]; GW4064 1 µM, read-out: IC50, inhibition of GW4064-promoted interaction of SRC-2 and FXR) [µM] | IC50 ([9]; OCA 1 µM, read-out: IC50, inhibition of OCA-induced recruitment of SRC-2 to FXR LBD) [µM]
C[C@H](CCC(=O)O)[C@H]1CCC2C3C(CC[C@@]21C)[C@@]1(C)CC[C@@H](O)C[C@H]1C[C@@]3(C)O (stereo partly drawn) [2b, 3α,7α-Dihydroxy-7β-methyl-5β-cholan-24-oic acid] | 85 ± 7.7 | 112 ± 1.6 | 64.9 ± 5 | 99.7 ± 1.2 | 119.5 ± 1 | 106 ± 5.8 | > 200 | > 200 | > 200 | 108 ± 7.7 | > 200 |  |  |  |  |  | 
CC[C@@]1(O)C[C@@H]2C[C@H](O)CC[C@]2(C)C2CC[C@@]3(C)C(CC[C@@H]3[C@H](C)CCC(=O)O)C21 (stereo partly drawn) [2c, 3α,7α-Dihydroxy-7β-ethyl-5β-cholan-24-oic acid] | 89 ± 6 | 67.1 ± 9.2 | 75.3 ± 2.5 | 100 ± 3.9 | 117 ± 1.3 | 113 ± 4.8 | > 200 | > 200 | > 200 | 105 ± 2 | > 200 |  |  |  |  |  | 
C=C[C@@]1(O)C[C@@H]2C[C@H](O)CC[C@]2(C)C2CC[C@@]3(C)C(CC[C@@H]3[C@H](C)CCC(=O)O)C21 (stereo partly drawn) [2d, 3α,7α-Dihydroxy-7β-vinyl-5β-cholan-24-oic acid] | 93.9 ± 6.6 | 80.2 ± 0.4 | 75.2 ± 4.6 | 95.9 ± 8.3 | 104 ± 2.4 | 117 ± 5.6 | 168.8 ± 1 | > 200 | > 100 | 106 ± 3.9 | > 200 | maintained |  |  |  |  | 
C#C[C@@]1(O)C[C@@H]2C[C@H](O)CC[C@]2(C)C2CC[C@@]3(C)C(CC[C@@H]3[C@H](C)CCC(=O)O)C21 (stereo partly drawn) [2e, 3α,7α-Dihydroxy-7β-ethynyl-5β-cholan-24-oic acid] | 80.3 ± 3.9 | 114.8 ± 0.7 | 64.8 ± 4.9 | 96.5 ± 4.1 | 92.9 ± 6.5 | 103 ± 4.4 | > 200 | > 200 | > 200 | 97.5 ± 6.6 | > 200 | only minor antagonist activity | weak or no ability to act as agonists of GPBAR1 |  |  |  | 
C=CC[C@@]1(O)C[C@@H]2C[C@H](O)CC[C@]2(C)C2CC[C@@]3(C)C(CC[C@@H]3[C@H](C)CCC(=O)O)C21 (stereo partly drawn) [2g, 3α,7α-Dihydroxy-7β-allyl-5β-cholan-24-oic acid] | 93.2 ± 0.6 | 107.2 ± 0.3 | 74.4 ± 4.4 | 97.7 ± 9.1 | 126 ± 4.5 | 93.5 ± 10 | 162 ± 2.1 | > 200 | > 100 | 109 ± 3.2 | 161 | maintained | comparable activities to LCA |  |  |  | 
CC(CCC(=O)O)C1CCC2C3C(CCC12C)C1(C)CCC(O)CC1CC3(O)C(C)C (stereo not drawn) [2h, 3α,7α-Dihydroxy-7β-isopropyl-5β-cholan-24-oic acid] | 91.4 ± 5.3 | 47.6 ± 0.3 | 63 ± 8.2 | 93.4 ± 7.4 | 101 ± 6.9 | 97.6 ± 7.3 | 103.3 ± 1 | 181 | > 100 | 94 ± 3.7 | 143 |  |  | 17.5 ± 1.7 | ~90 | 35.2 ± 5.4 | 25 ± 3.7
C=CCCC[C@@]1(O)C[C@@H]2C[C@H](O)CC[C@]2(C)C2CC[C@@]3(C)C(CC[C@@H]3[C@H](C)CCC(=O)O)C21 (stereo partly drawn) [2j, 3α,7α-Dihydroxy-7β-(pent-4-en)-5β-cholan-24-oic acid] | 93.6 ± 2.8 |  |  | 87.8 ± 6.7 | 93.1 ± 4.4 | 114 ± 7 | 77.3 ± 1.2 | 76.5 | 34 ± 1.5 | 127 ± 7.1 | 75 | maintained | weak or no ability to act as agonists of GPBAR1 |  |  |  | 
